Literature values, collected in PMC2833348 (Bioorganic & medicinal chemistry letters, 2010).

Test system: cell - cell fusion (CCF)
Details: read-out: IC50 against cell - cell fusion (CCF)

COc1ccc(S(=O)(=O)O)cc1/N=N/c1c(S(=O)(=O)O)cc2cc(Nc3nc(Nc4ccccc4)nc(Nc4cc(C)c(/N=N/c5cc(S(=O)(=O)O)cc6cc(S(=O)(=O)O)cc(O)c56)cc4OC)n3)ccc2c1O [ADS-J1]
IC50: 4.2 µM
